One assay concerns the target T1, GPR40 (Homo sapiens, UniProt O14842).
T1 construct: expressed in transfected cells; host or cells: HEK293
Nature of the assay: BRET Gαq / Gαi2 activation biosensors in HEK293 cells transfected with GPR40. The assay is classed as cell-based. Here is the method: Figure 1 PBI-4547 binding and activity on GPR84, GPR40, GPR120, and PPAR receptors. (A) Chemical structure of PBI-4547. (B) Gi pathway activation was monitored in HEK293 cells transfected with GPR84 and the Gαi2 activation biosensor. Cells were co-treated with […] sodium decanoate and increasing concentrations of PBI-4547, and BRET variation compared with vehicle was measured. (C) β-arrestin 2 recruitment to activated GPR120 receptor was monitored in HEK293 cells transfected with RLuc8-β-arrestin 2 and GPR120-GFP10. (D) Cells transfected with GPR40 and Gαq or Gαi2 activation biosensor were exposed to increasing concentrations of PBI-4547 or to 500 µM of sodium decanoate, and BRET variation compared with vehicle was measured. Cells were exposed to increasing concentrations of PBI-4547 or to 100 µM of GW9508, and BRET variation compared with vehicle was measured. […] Data in (B–D) are expressed as means ± SEM of 4–5 experiments; data in (E,F) are from a representative experiment from a total of 3 to 4 independent experiments. […]
BRET measurements in transiently transfected HEK293 cells were performed as previously described. Ligands were incubated with cells at room temperature for 10 min (G protein biosensors) or 25 min (β-arrestin/GPR120) before collecting BRET[2] readings between Rluc8 and GFP10.
Background: In BRET a luciferase serves as donor, and the signal depends on an acceptor being close.

In a further assay the target is T2, PPARα (Homo sapiens, UniProt Q07869).
T2 construct: glutathione S-transferase (GST)-tagged human PPAR-LBD; purchased Fisher Scientific
T2 sequence (Q07869 239-466 limits assumed): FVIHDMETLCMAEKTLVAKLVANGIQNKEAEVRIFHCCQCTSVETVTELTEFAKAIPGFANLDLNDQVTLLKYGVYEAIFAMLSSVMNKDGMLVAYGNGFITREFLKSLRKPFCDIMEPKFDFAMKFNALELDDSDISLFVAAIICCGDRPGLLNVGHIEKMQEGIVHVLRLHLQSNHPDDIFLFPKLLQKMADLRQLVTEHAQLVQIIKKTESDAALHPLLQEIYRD
In words: LanthaScreen TR-FRET competitive binding assay, PPARα LBD. The conditions noted are these: Cheng-Prusoff; read-out: Ki inhibition constant, PPARα LBD. From the text:
The peroxisome proliferator-activated receptors (PPARs), PPARα, PPARδ, and PPARγ are ligand-dependent transcription factors regulated by FAs, including MCFAs, which control expression of several key metabolism-associated genes. We thus characterized the binding and transcriptional activity of PBI-4547 to these receptors. A LanthaScreen TR-FRET competitive binding assay was used to determine the binding affinity of PBI-4547 in comparison to the full control agonists GW7647 (PPARα), GW0742 (PPARδ), and rosiglitazone (PPARγ).
The LanthaScreen time-resolved fluorescence resonance energy transfer (TR-FRET) PPARα, PPARδ and PPARγ competitive binding assay (Fisher Scientific) was performed according to the manufacturer’s protocol. […] The FRET signal was measured using an Infinite M1000 microplate reader by excitation at 332 nm and emission at 520 nm for fluorescein and 490 nm for terbium. Competitive ligand binding to PPAR is detected by a test compound’s ability to displace the Fluormone pan-PPAR Green from the LBD, which results in a decrease of the 520 nm/490 nm TR-FRET ratio. The inhibition constant (Ki) of the competitor ligand was calculated by applying the Cheng-Prusoff equation.
In general terms: TR-FRET usually uses a lanthanide donor and a delayed reading to cut background.

The next assay concerns BDL rat. In words: Bile duct ligation (BDL)-induced liver fibrosis. The assay is classed as in vivo. From the text: Since fibrosis contributes directly to the progression from NAFLD to NASH, we next evaluated the effect of PBI-4547 pro-fibrotic gene expression. […] Pro-inflammatory genes were not modulated by treatment with PBI-4547. […] As liver fibrosis was relatively mild in HFD-fed mice, we performed separate studies to evaluate the antifibrotic effect of PBI-4547, in rodent models of carbon tetrachloride (CCl4)- and bile duct ligation (BDL)-induced liver fibrosis.

Like-named read-outs stand apart in the source and are kept apart here.

T1 sequence (O14842 whole entry, species assumed): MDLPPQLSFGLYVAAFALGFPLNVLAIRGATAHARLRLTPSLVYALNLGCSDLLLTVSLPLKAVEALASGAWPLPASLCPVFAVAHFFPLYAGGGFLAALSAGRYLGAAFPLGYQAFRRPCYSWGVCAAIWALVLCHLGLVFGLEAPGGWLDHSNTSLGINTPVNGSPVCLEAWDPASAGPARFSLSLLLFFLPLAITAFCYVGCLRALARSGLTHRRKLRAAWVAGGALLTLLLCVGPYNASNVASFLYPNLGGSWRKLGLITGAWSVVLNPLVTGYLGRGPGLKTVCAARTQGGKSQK

For `CCCCCc1cc(CCCCC)cc(CC(=O)[O-])c1.[Na+]` [PBI-4547, 2-[3,5-dipentylphenyl]acetate sodium salt], the EC50 (as a rule, the concentration at which the effect is half-maximal) on GPR40 (Gαi2 biosensor, read-out: EC50, GPR40 Gαi2 biosensor BRET signal decrease) was found to be 27 µM; on GPR40 (Gαq biosensor, read-out: EC50, GPR40 Gαq biosensor BRET signal decrease) it was 30 µM. At PPARα, the inhibitory constant (Ki) – broadly, a measure of affinity in units of concentration, obtained from inhibition or displacement – was 0.489 µM. In addition, the liver collagen deposition entry in the assay on BDL rat is “significantly decreased”.

Values taken from paper PMC7391726, “Fatty acid mimetic PBI-4547 restores metabolic homeostasis via GPR84 in mice with non-alcoholic fatty liver disease” (Scientific Reports, 2020).
